Reference: patent US20210395210A1, “INHIBITION OF BACTERIAL CHAPERONIN SYSTEMS” (THE TRUSTEES OF INDIANA UNIVERSITY, priority 2018, published 2021)

Biological target: T1, native MDH (Sus scrofa, UniProt P00346)
T1 construct: soluble pig heart MDH from Roche, product #10127248001; purchased Roche 10127248001; host or cells: pig heart
T1 sequence (P00346 25-338): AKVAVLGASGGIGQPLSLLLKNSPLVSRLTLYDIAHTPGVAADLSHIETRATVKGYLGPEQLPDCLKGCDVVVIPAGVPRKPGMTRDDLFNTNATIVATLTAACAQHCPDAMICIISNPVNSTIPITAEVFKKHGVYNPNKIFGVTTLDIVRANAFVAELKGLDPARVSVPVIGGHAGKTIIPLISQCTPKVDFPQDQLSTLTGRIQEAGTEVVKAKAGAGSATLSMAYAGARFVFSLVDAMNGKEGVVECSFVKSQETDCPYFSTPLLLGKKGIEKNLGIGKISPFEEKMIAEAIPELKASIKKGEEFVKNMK
Assay: Counter-screen for inhibition of native MDH enzymatic activity
Assay type: biochemical, pig
Procedure: Reagent Preparations & Assay Protocol: This assay was performed as described above for the GroEL/ES-dMDH refolding assay; however, the assay protocol differed in the sequence of compound addition to the assay plates. The refolding reactions were allowed to proceed for 45 min at 37° C. in the absence of test compounds (complete refolding of MDH occurs), then quenched with the EDTA stock. Compounds were then pin-transferred into the plates after the EDTA quenching step; thus, compounds effects are only possible by inhibiting the fully-refolded MDH reporter substrate. […] A340 nm measurements were recorded at 0.5 minutes (start point) and at successive time points until the amount of NADH consumed reached ˜90% (end point, generally between 20-35 minutes). Compounds were tested in 8-point, 3-fold dilution series (62.5 μM to 29 nM during the reporter reaction) in clear, flat-bottom 384-well microtiter plates. DMSO was used as a negative control, and previously discovered native MDH inhibitors were used as positive controls. […] Results presented represent the averages of IC50 values obtained from at least quadriplicate (duplicate of duplicate) replicates.

In the case of O=C(Nc1ccccc1)c1ccccc1 [Compound 28, N-Phenylbenzamide], the IC50 (Biochemical Assay IC50 Native MDH Reporter) is reported as > 63 µM and the IC50 (log(IC50) Native MDH Reporter, log of IC50 (μM scale), with standard deviation) is reported as > 63.1 µM.
